According to the supplement of paper PMC10307832:

Legend:
Assay in all cases: relative viability (nuclei count vs DMSO), 5 days (fraction); higher = more cells survive
Venetoclax + Luminespib = compound: CC1(C)CCC(CN2CCN(c3ccc(C(=O)NS(=O)(=O)c4ccc(NCC5CCOCC5)c([N+](=O)[O-])c4)c(Oc4cnc5[nH]ccc5c4)c3)CC2)=C(c2ccc(Cl)cc2)C1 [Venetoclax] + CCNC(=O)c1noc(-c2cc(C(C)C)c(O)cc2O)c1-c1ccc(CN2CCOCC2)cc1 [Luminespib] (partner 0.01 µM)
Summary of the method: (§1)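 After 5 days of treatment, lung cancer cells in 1536-well plates were fixed and stained in a single step (final 0.05% Triton X-100, 1% formaldehyde, 1 ug/ml Hoechst) and their nuclei counted on 4× images. Treatment had been applied by pin tool the day after seeding as one drug alone or as a fixed anchor-drug dose with five library-drug doses (not always all listed) in √10 steps. Relative viability is the nuclei count of treated wells divided by that of vehicle wells, and values are medians of duplicate plates.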

Venetoclax + Crizotinib = compound: CC1(C)CCC(CN2CCN(c3ccc(C(=O)NS(=O)(=O)c4ccc(NCC5CCOCC5)c([N+](=O)[O-])c4)c(Oc4cnc5[nH]ccc5c4)c3)CC2)=C(c2ccc(Cl)cc2)C1 [Venetoclax] + C[C@@H](Oc1cc(-c2cnn(C3CCNCC3)c2)cnc1N)c1c(Cl)ccc(F)c1Cl [Crizotinib] (partner 1 µM)
Summary of the method: as §1

Selumetinib + OSI-027 = compound: Cn1cnc2c(F)c(Nc3ccc(Br)cc3Cl)c(C(=O)NOCCO)cc21 [Selumetinib] + COc1cccc2cc(-c3nc([C@H]4CC[C@H](C(=O)O)CC4)n4ncnc(N)c34)[nH]c12 [OSI-027] (partner 0.5 µM)
Summary of the method: as §1

Venetoclax + Pemetrexed = compound: CC1(C)CCC(CN2CCN(c3ccc(C(=O)NS(=O)(=O)c4ccc(NCC5CCOCC5)c([N+](=O)[O-])c4)c(Oc4cnc5[nH]ccc5c4)c3)CC2)=C(c2ccc(Cl)cc2)C1 [Venetoclax] + Nc1nc2[nH]cc(CCc3ccc(C(=O)N[C@@H](CCC(=O)O)C(=O)O)cc3)c2c(=O)[nH]1 [Pemetrexed] (partner 0.2 µM)
Summary of the method: as §1

Cell Line	relative viability (Venetoclax + Luminespib; first compound 0.01 µM)	relative viability (Venetoclax + Luminespib; first compound 0.03162 µM)	relative viability (Venetoclax + Luminespib; first compound 0.1 µM)	relative viability (Venetoclax + Luminespib; first compound 0.3162 µM)	relative viability (Venetoclax + Luminespib; first compound 1 µM)	relative viability (Venetoclax + Crizotinib; first compound 0.01 µM)	relative viability (Venetoclax + Crizotinib; first compound 0.03162 µM)	relative viability (Venetoclax + Crizotinib; first compound 0.1 µM)	relative viability (Venetoclax + Crizotinib; first compound 0.3162 µM)	relative viability (Venetoclax + Crizotinib; first compound 1 µM)	relative viability (Selumetinib + OSI-027; first compound 0.02 µM)	relative viability (Selumetinib + OSI-027; first compound 0.06325 µM)	relative viability (Selumetinib + OSI-027; first compound 0.2 µM)	relative viability (Selumetinib + OSI-027; first compound 0.6325 µM)	relative viability (Venetoclax + Pemetrexed; first compound 0.01 µM)	relative viability (Venetoclax + Pemetrexed; first compound 0.03162 µM)	relative viability (Venetoclax + Pemetrexed; first compound 0.1 µM)	relative viability (Venetoclax + Pemetrexed; first compound 0.3162 µM)	relative viability (Venetoclax + Pemetrexed; first compound 1 µM)
COR-L 105	1.03	0.61	0.522	0.712	0.625	0.717	0.638	0.669	0.738	0.698	0.612	0.46	0.467	0.343	0.738	1.03	1.11	1.16	1.07
NCI-H322M	1	0.842	0.814	0.944	0.941	0.988	0.838	0.912	0.894	0.878	0.487	0.434	0.477	0.45	0.606	0.581	0.598	0.627	0.596
NCI-H838	0.408	0.255	0.24	0.378	0.275	0.815	0.854	0.8	0.88	0.795	0.31	0.327	0.315	0.252	0.246	0.261	0.264	0.234	0.24
NCI-H1993	0.881	0.843	0.917	0.896	0.777	0.854	0.851	0.906	0.838	0.774	0.553	0.585	0.585	0.632	0.565	0.579	0.599	0.57	0.668
CAL-12T	0.353	0.254	0.375	0.24	0.412	0.65	0.567	0.595	0.527	0.555	0.636	0.492	0.516	0.395	0.965	1.23	1.14	1.22	1.19
LCLC-97TM1	0.709	0.397	0.717	0.727	0.771	–	0.306	0.342	0.301	0.312	0.487	0.386	0.325	0.249	0.165	0.182	0.167	0.163	0.153
NCI-H1355	0.748	0.759	0.667	0.782	0.778	1.07	1.14	1.07	0.984	1.04	0.343	0.33	0.278	0.277	1.02	1.08	1.01	1.08	1.01
NCI-H596	1.03	0.947	1.03	0.994	1.06	1.14	0.893	1.02	1.02	1.02	0.775	0.673	0.693	0.571	0.473	0.495	0.461	0.488	0.486
NCI-H1944	0.992	0.787	0.775	0.879	0.696	1.18	1.17	0.791	1.04	1.12	0.4	0.391	0.337	0.335	0.669	0.592	0.571	0.607	0.589
NCI-H2085	0.339	0.427	0.437	0.37	0.438	0.815	0.903	0.765	1.02	0.745	0.71	0.499	0.35	0.428	0.756	0.948	0.86	0.823	0.798
201T	1.01	1.08	1.04	0.996	1.05	1.01	0.995	0.989	0.948	1.05	0.658	0.674	0.628	0.691	0.283	0.309	0.33	0.329	0.366
NCI-H2405	0.747	0.754	0.85	0.712	0.639	0.856	0.881	0.771	0.824	0.79	0.721	0.661	0.585	0.412	0.98	1.16	0.979	1.06	0.963
LXF-289	0.787	0.7	0.61	0.663	0.472	0.832	0.816	0.776	0.798	0.702	0.796	0.73	0.648	0.519	0.986	0.948	0.782	0.873	0.79
LC-2-ad	1.05	0.962	0.981	1.01	0.898	0.46	0.465	0.439	0.466	0.51	0.828	0.662	0.631	0.726	0.283	0.27	0.256	0.262	0.259
NCI-H2126	0.866	0.95	0.991	0.961	0.87	0.986	1.02	1.04	0.971	0.969	0.676	0.597	0.577	0.606	0.748	0.737	0.67	0.653	0.611
COR-L23	0.469	0.669	0.728	0.71	0.651	0.631	0.696	0.601	0.778	0.543	0.798	0.782	0.753	0.565	0.181	0.177	0.189	0.199	0.197
BEN	0.343	0.48	0.401	0.192	0.513	0.825	0.81	0.727	0.851	0.817	0.276	0.315	0.274	0.295	0.811	0.826	0.712	0.855	0.769
ChaGo-K-1	0.459	0.709	0.637	0.628	0.59	1.1	1.27	–	1.16	1.08	0.562	0.504	0.524	0.528	0.257	0.26	0.255	0.26	0.263
LK-2	0.186	0.204	0.185	0.157	0.182	0.192	0.214	0.262	0.248	0.253	0.2	0.229	0.203	0.189	0.331	0.381	0.255	0.249	0.227
NCI-H460	0.0354	0.0317	0.0311	0.0401	0.0316	0.902	0.773	0.946	0.908	0.719	0.52	0.425	0.227	0.225	0.062	0.0571	0.0565	0.0577	0.064
NCI-H647	0.167	0.206	0.124	0.123	0.151	0.803	1.35	–	0.974	0.722	0.717	0.512	0.614	0.478	0.164	0.192	0.206	0.178	0.178
NCI-H1734	0.184	0.188	0.244	0.204	0.224	0.733	0.833	0.724	0.73	0.614	0.557	0.635	0.539	0.537	0.417	0.459	0.399	0.422	0.393
NCI-H2023	0.744	0.911	0.859	0.784	0.676	0.541	0.737	0.721	0.552	0.53	0.392	0.348	0.318	0.375	0.238	0.243	0.263	0.264	0.203
NCI-H2009	0.987	1.08	0.937	1	0.92	0.99	1.01	0.954	1.01	0.968	0.52	0.491	0.395	0.261	0.989	1.04	1.05	1	0.961
